Measured values from US9249116B2, “Enzyme-activating compounds and compositions” (The Board of Trustees of the University of Illinois, priority 2012, dated 2016).
Where two headings read alike, the source gives them in different places.

How the values were obtained:
[1] = test system: U-937 cells (human lymphoma); assay: 72 Hour IC50 cell death assay (sulforhodamine B); type: cell-based
Protocol: After the synthesis was complete, the biological activity of the compounds was evaluated.
U-937 human lymphoma cells were plated into the wells of 96 well plate at a density of 15,000 cells per well in 99 μL of RPMI 1640 growth media with 10% FBS and 1% pen-strep. To each well was added 1 μL of compound stock solutions in DMSO at varying concentrations such that the cells were treated with concentrations between 0 μM and 100 μM compound. Each concentration was tested in quintuplicate per plate. In each plate 5 wells received 20 μM doxorubicin as a positive death control and 5 wells received 1 μL of DMSO as a negative control.
After the 72 hour incubation period, the plates were analyzed using a Sulforhodamine B assay (Vichai and Kirtikara, Nat Protoc 2006, 1, 1112-1116). Specifically, to each well of the plate 25 μL of a 50% (w/v) solution of trichloroacetic acid in H2O was added and the plates were incubated for 4 hours at 4° C. The plates were then washed gently with water five times. The plates were allowed to air dry after which 100 μL of a 0.057% (w/v) Sulforhodamine B in a 1% (v/v) acetic acid solution was added to each well for 30 minutes at room temperature. The plates were gently washed 5 times with 1% (v/v) acetic acid and air dried. 200 μL of 10 mM Tris base (pH 10.4) was added to each well and the plates were placed on an orbital shaker for thirty minutes. The level of SRB was quantified fluorometrically at excitation and emission wavelengths 488 and 585 nm, respectively, on a Molecular Devices plate reader and the percent cell death calculated and normalized to the positive control (100% cell death) and the negative control (0% cell death). The percent cell death was averaged for each compound concentration and plotted as a function of compound concentration. The data were fit to a logistical dose response curve using Table curve 2D and the IC50 value was calculated. The experiment was repeated three times and the average of the calculated IC50 values was reported. The standard error of the mean (SEM) was determined and reported for the triplicate experiments.

procaspase-3 = target: T1, procaspase-3 (Homo sapiens, UniProt P42574); assay: Procaspase-3 activity assay (relief of zinc-mediated inhibition, Ac-DEVD-pNA cleavage); type: biochemical; conditions: procaspase-3 incubated with […] ZnSO4; method gives compounds at 25 μM
T1 construct: 6xHis (C); made in house; host or cells: Rosetta E. coli
T1 sequence (P42574 1-277): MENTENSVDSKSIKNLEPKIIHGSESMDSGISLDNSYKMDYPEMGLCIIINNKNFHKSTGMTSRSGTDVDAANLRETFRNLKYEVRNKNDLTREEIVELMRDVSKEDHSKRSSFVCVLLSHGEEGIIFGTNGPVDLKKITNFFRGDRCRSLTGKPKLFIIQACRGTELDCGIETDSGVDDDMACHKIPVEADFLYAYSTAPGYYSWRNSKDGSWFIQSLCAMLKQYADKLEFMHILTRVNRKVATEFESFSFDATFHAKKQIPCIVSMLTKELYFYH
Protocol: The six confirmed hits were then evaluated in vitro for their ability to relieve zinc-mediated inhibition of procaspase-3 (Table A). In this experiment, procaspase-3 was incubated with ZnSO4, conditions in which procaspase-3 has no enzymatic activity.
Techniques adapted from Hergenrother and coworkers (Putt et al., Nat Chem Biol 2006, 2, 543-550). A 20 mL volume of an overnight culture of Rosetta E. coli containing the procaspase-3 (wild-type) expression plasmid was seeded into 2 L of LB media containing ampicillin. The culture was grown to an OD600=1.0, at which point protein expression was induced via addition of IPTG (to 1 mM); the culture was allowed to grow for 30 additional minutes. Cells were then harvested (10 minute spins at 10,000×g and re-suspended in NTA binding buffer (300 mM NaCl, 50 mM Tris, 10 mM imidazole, pH 8.0). The cells were lysed on ice via sonication. The cell lysate was then spun at 35,000×g for […] The supernatant was decanted and 1 mL of nickel-NTA resin was added. The cell lysate was incubated for 45 minutes at 4° C. The resin was loaded on a column, washed with 10 mL NTA binding buffer followed by 10 mL NTA wash buffer (300 mM NaCl, 50 mM Tris, 50 mM imidazole, pH 8.0). The proteins were eluted in 0.5 mL fractions with 10 mL of NTA elution buffer (300 mM NaCl, 50 mM Tris, 500 mM imidazole, pH 8.0). Fractions containing protein were pooled and further purified to remove any contaminating zinc by applying the protein to a PD-10 column (GE Healthcare) charged with Caspase Activity Buffer that had been treated with Chelex® resin. The resulting concentration was determined using the Edelhoch method and the molar absorptivity of procaspase-3 of 26150 M^−1 cm^−1. Protein stocks were flash-frozen in liquid nitrogen and stored at −80° C.
In a 384-well plate recombinantly expressed, zinc-free procaspase-3 (wild type, at 1 μM) in Caspase Activity Buffer (50 mM HEPES, 300 mM NaCl, 1.5 mM TCEP, 0.01% TritonX-100) was incubated at 37° C. in the presence of 3.5 μM ZnSO4 and the basal activity was assessed via the addition of Ac-DEVD-pNA (final concentration in well of 200 μM). The absorbance at 405 nm was monitored with a SpectraMax plate reader (Molecular Devices). […] Activity of each treatment was assessed at 5, 20, 40 and 60 minutes via 5-minute kinetic reads. The slope of each data set was used to determine the activity of the protein. Activity was normalized to a percent activity at each time point using a zinc-free sample and a zinc-inhibited sample treated with DMSO.

mice = assay: Assessment of toxicity in vivo
Description: The level of toxicity was rated on a scale of 0 (no observable adverse effect) to 3 (severe toxicity, almost fatal).

[2] = Liver microsome stability assay; type: in vitro ADME; conditions: rat liver microsomes, 10 μM, LC/MS
Protocol: FIG. 4. Liver Microsome Stability Assay. Compounds (10 μM) incubated with liver microsomes for 3 h and quenched with MeCN containing internal standard, analyzed by LC/MS (280 nm). Next, the metabolic stability of the compounds was evaluated in rat liver microsomes. The compounds were evaluated for 3 hours at 10 μM, and the metabolites were observed by LC/MS.

[3] = read-out: U-937 72 h IC50 (μM), Table 1, U-937 cells, 72 h
[4] = mice, scale 0 to 3, or time of death

Row | Compound | Procaspase-3 (% Activity at […]) (procaspase-3) [%] | RLM 3 h % Stability [2] | other results
1 | C=CCc1cccc(/C=N/NC(=O)CN2CCN(Cc3ccccc3)CC2)c1O [PAC-1, Procaspase-Activating Compound 1, reference compound] | 42 ± 1.8 | 38 ± 2% | IC50 ([1]; U-937, 72 h, read-out: U-937 72 h IC50 (μM)): 10.2 ± 0.3 µM; Mouse Toxicity (mice; mouse, in vivo): 3
2 | C=CCc1cccc(/C=N/NC(=O)CN2CCN(Cc3ccc(S(N)(=O)=O)cc3)CC2)c1O [S-PAC-1, reference compound] | 4 ± 0.6 | reasonably stable | RLM 3 h % Stability ([2]; listed as 2 (S-PAC-1)): 84 ± 0%
3 | CCCc1cc(F)cc(/C=N/NC(=O)CN2CCN(C(=O)c3ccccc3)CC2)c1O [Compound 39, 2-(4-benzoylpiperazin-1-yl)-N′-(5-fluoro-2-hydroxy-3-propylbenzylidene)acetohydrazide] |  | 86 ± 5% | IC50 [1, 3]: 12.3 ± 1 µM; Mouse Toxicity (mice; [4]): 2
4 | C=CCc1cccc(/C=N/NC(=O)CN2CCN(C(=O)c3ccc(C#N)cc3)CC2)c1O [Compound 5, N′-(3-allyl-2-hydroxybenzylidene)-2-(4-(4-cyanobenzoyl)piperazin-1-yl)acetohydrazide] |  | 90 ± 4% | IC50 [1, 3]: 13.1 ± 3.7 µM; Mouse Toxicity (mice; [4]): death >72 h (greater than 72 hours post-treatment)
5 | CCCc1cc(F)cc(/C=N/NC(=O)CN2CCN(Cc3ccccc3)CC2)c1O [Compound 37, 2-(4-benzylpiperazin-1-yl)-N′-(5-fluoro-2-hydroxy-3-propylbenzylidene)acetohydrazide] |  | 49 ± 6% | IC50 [1, 3]: 8.9 ± 1.2 µM; Mouse Toxicity (mice; [4]): death <24 h (the mice died either within 24 hours of treatment)

Now from value to compound, other results behind:

Row | Procaspase-3 (% Activity at […]) (procaspase-3) [%] | Compound | RLM 3 h % Stability [2] | other results
6 | 36 ± 1.6 | CC(C)(C)c1cc(/C=N/NC(=O)CN2CCN(Cc3ccc(OCc4ccccc4)cc3)CC2)c(O)c(C(C)(C)C)c1 [3{18,7}] |  | 
7 | 60 ± 2.4 | CCc1ccc(CN2CCN(CC(=O)N/N=C/c3cc(C(C)(C)C)cc(C(C)(C)C)c3O)CC2)cc1 [3{28,7}] |  | 
8 | 82 ± 2.4 | C=CCc1cccc(/C=N/NC(=O)CN2CCN(Cc3ccc(C(C)(C)C)cc3)CC2)c1O [3{20,24}, N′-(3-allyl-2-hydroxybenzylidene)-2-(4-(4-(tert-butyl)benzyl)piperazin-1-yl)acetohydrazide] |  | 
9 | 53 ± 4.1 | COc1ccc(CN2CCN(CC(=O)N/N=C/c3cc(C(C)(C)C)cc(C(C)(C)C)c3O)CC2)cc1 [3{2,7}] |  | 
10 | 69 ± 5.3 | CC(C)(C)c1cc(/C=N/NC(=O)CN2CCN(Cc3ccc4ccccc4c3)CC2)c(O)c(C(C)(C)C)c1 [3{25,7}] |  | 
11 | 64 ± 2.5 | COc1ccc(OC)c(CN2CCN(CC(=O)N/N=C/c3cc(C(C)(C)C)cc(C(C)(C)C)c3O)CC2)c1 [3{4,7}] |  | 
